Values of other authors, collected in patent US20260257261A1, “BIOMIMETIC MULTIFUNCTIONAL LIGNOCELLULOSIC DEGRADABLE SORBENT FOR ENVIRONMENTAL REMEDIATION” (THE TEXAS A&M UNIVERSITY SYSTEM, priority 2022, published 2026).

Conditions: previous studies by Mahapatra et al. and others

In the case of `O=C(O)C(F)(F)C(F)(F)C(F)(F)F` [PFBA], the “toxicity relative to PFOA (C8)” value is given as “much less toxic”.

In the case of `O=C(O)C(F)(F)C(F)(F)C(F)(F)C(F)(F)C(F)(F)F` [PFHA, perfluorohexanoic acid], the “toxicity relative to PFOA (C8)” value is listed as “much less toxic”.

In the case of `O=C(O)C(F)(F)C(F)(F)C(F)(F)C(F)(F)F` [PUPA], the “toxicity relative to PFOA (C8)” value is listed as “much less toxic”.
